SMILES strings stand for the structures. Some results are limits rather than exact numbers.

The term Kd denotes the free concentration of one partner at which half of the binding sites on the other are occupied at equilibrium, for simple one-to-one binding.

T1 sequence (Q99500 whole entry): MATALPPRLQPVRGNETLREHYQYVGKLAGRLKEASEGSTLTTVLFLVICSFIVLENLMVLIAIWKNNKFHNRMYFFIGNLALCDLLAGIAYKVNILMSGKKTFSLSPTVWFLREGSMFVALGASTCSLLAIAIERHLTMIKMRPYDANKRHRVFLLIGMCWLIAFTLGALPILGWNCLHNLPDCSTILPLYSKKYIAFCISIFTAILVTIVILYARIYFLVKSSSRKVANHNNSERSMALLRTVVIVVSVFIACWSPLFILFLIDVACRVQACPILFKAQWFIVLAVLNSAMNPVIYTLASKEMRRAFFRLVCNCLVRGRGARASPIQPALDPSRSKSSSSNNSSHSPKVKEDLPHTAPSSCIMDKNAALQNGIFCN

This test concerns the target T1, Human S1P3 receptor (Homo sapiens, UniProt Q99500).
T1 construct: expressed in transfected cells; host or cells: CHO cells (Geneticin-selected)
Description: Suppression of S1P-induced cellular calcium mobilization in human S1P3 receptor-expression CHO cells (Schild plot). Format: cell-based. The conditions noted are these: Schild plot of S1P EC50 shift; test compound 125 nM, 1.25 μM, 12.5 μM; hS1P3 CHO cells; read-out: S1P3 dissociation constant Kd value. As to the method:
Suppression Effect of Test Compound Against Cellular Calcium Mobilization of Human S1P3 Receptor-Expression Cell by S1P (Sphingosine 1-Phosphoric Acid)
Human S1P3 receptor-expression CHO cells were subcultured in a Ham's F-12 culture medium containing 10% fetal bovine serum, and 300 μg/mL of Geneticin. The human S1P3 receptor-expression CHO cells were subjected to 0.25% trypsinization, then recovered from the dish, and floated in a Ham's F-12 culture medium containing 10% fetal bovine serum, and 300 μg/mL of Geneticin. After that, the human S1P3 receptor-expression CHO cells were disseminated into a 96-well black clear bottom plate (BD Falcon Biocoat) so that 7×10^4/100 μL/well of the human S1P3 receptor-expression CHO cells were disseminated. And then, the human S1P3 receptor-expression CHO cells were cultivated for one night at 37° C. under 5% CO2. The next day, the wells were washed 3 times with 100 μL of PBS containing 0.1% fatty acid-free bovine serum albumin (BSA). The culture medium was exchanged with a Ham's F-12 culture medium containing 0.1% BSA, and then starved of serum for 6 hours in an CO2 incubator at 37° C.
The culture medium was thrown away after the 6 hours. Then, 50 μL/well of a Fluo3 loading buffer was added, and the cultures were cultivated for further 1 hour. The Fluo3 loading buffer was prepared as follows. First, equal amounts of Fluo3-AM (Dojindo) and pluronic F-127 (20% DMSO solution, invitrogen) were mixed. Next, the mixture of Fluo3-AM and pluronic F-127 was added to a Hanks-HEPES buffer (balanced salt solution containing 20 mM HEPES (pH, 7.4), 0.1% BSA (fatty acid-free), and 2.5 mM probenecid) to form a Fluo3 loading buffer having a final Fluo3-AM concentration of 4
After incubating for 1 hour, the cultures were washed 3 times with 100 μL of the Hanks-HEPES buffer. Then, 100 μL of the same buffer in which a test compound (125 nM, 1.25 μM, 12.5 μM) or DMSO had been dissolved was added to the cultures, and then incubated for 30 minutes at 37° C. in a microplate spectrophotofluorometer (FLEX Station) (Molecular Device Co., Ltd.). Then, 25 μL of S1P prepared at 5 times the concentration of the final concentration by serial dilution (final concentration of 0.1 nM, 1 nM, 10 nM, 100 nM, and 1 μM) was added, and the fluorescence based on the Fluo3 due to calcium mobilization was detected and measured at an excitation wavelength of 485 nm and a detection wavelength of 525 nm using the same apparatus. Based on the measurement data, the increase in fluorescence was calculated by subtracting the minimum fluorescence intensity from the maximum fluorescence intensity. The measured increase in fluorescence was used to perform a curve approximation of the relationship between the S1P concentration and the increase in fluorescence using PRISM 4 software (GraphPad). Based on the results, the EC50 value of the compound-untreated and the EC50 value of the compound-treated at each concentration were calculated. Schild Plot analysis was performed based on these values to determine dissociation constant Kd value. In Table 1, 1,000 nmol/L>Kd value≧100 nmol/L is indicated as “+,” 100 nmol/L>Kd value≧10 nmol/L is indicated as “++,” 10 nmol/L>Kd value≧1 nmol/L is indicated as “+++,” and 1 nmol/L>Kd value is indicated as “++++.”
In general terms: Calcium flux is commonly read through the fluorescence of an indicator in the cells.
For `C[C@](N)(CCc1ccc(Sc2cc(OCc3ccccc3)ccc2O)cc1Cl)COP(=O)(O)O` [Example 9, (S)-2-amino-4-[4-(5-benzyloxy-2-hydroxyphenylthio)-2-chlorophenyl]-2-methylbutylphosphoric acid monoester], the dissociation constant (Kd) lay within 1 to 10 nM.

As to `CCC[C@](N)(CCc1ccc(Sc2cc(C3CC3)ccc2O)cc1Cl)COP(=O)(O)O` [Example 20, (S)-2-amino-4-[2-chloro-4-(5-cyclopropyl-2-hydroxyphenylthio)phenyl]-2-propylbutylphosphoric acid monoester], the Kd is 1 to 10 nM.

As to `CC(C)c1ccc(O)c(Sc2ccc(CC[C@](C)(N)COP(=O)(O)O)c(Cl)c2)c1` [Example 4], the Kd was 1 to 10 nM.

Take `CCCc1ccc(O)c(Sc2ccc(CC[C@](C)(N)COP(=O)(O)O)c(Cl)c2)c1` [Example 3, (S)-2-amino-4-[2-chloro-4-(2-hydroxy-5-propylphenylthio)phenyl]-2-methylbutylphosphoric acid monoester]: the Kd fell in the range of 10 to 100 nM.

For the compound `COc1ccc(O)c(Sc2ccc(CC[C@](C)(N)COP(=O)(O)O)c(Cl)c2)c1` [Example 6, (S)-2-amino-4-[2-chloro-4-(2-hydroxy-5-methoxyphenylthio)phenyl]-2-methylbutylphosphoric acid monoester], the dissociation constant (Kd) was in the range of 100 to 1000 nM.

Take `CCC[C@](N)(CCc1ccc(Sc2cc(C(C)C)ccc2O)cc1Cl)COP(=O)(O)O` [Example 19, (S)-2-amino-4-[2-chloro-4-(2-hydroxy-5-isopropylphenylthio)phenyl]-2-propylbutylphosphoric acid monoester]: the Kd lay in the range of 1 to 10 nM.

`CC(C)Oc1ccc(O)c(Sc2ccc(CC[C@](C)(N)COP(=O)(O)O)c(Cl)c2)c1` [Example 8, (S)-2-amino-4-[2-chloro-4-(2-hydroxy-5-isopropoxyphenylthio)phenyl]-2-methylbutylphosphoric acid monoester]: the Kd fell in the range of 10 to 100 nM.

Take `CCOc1ccc(O)c(Sc2ccc(CC[C@](C)(N)COP(=O)(O)O)c(Cl)c2)c1` [Example 7, (S)-2-amino-4-[2-chloro-4-(5-ethoxy-2-hydroxyphenylthio)phenyl]-2-methylbutylphosphoric acid monoester]: the Kd lay within 10 to 100 nM.

In the case of `C[C@](N)(CCc1ccc(Sc2cc(C(F)(F)F)ccc2O)cc1Cl)CCP(=O)(O)O` [Example 17, (S)-3-amino-5-[2-chloro-4-(2-hydroxy-5-trifluoromethylphenylthio)phenyl]-3-methylpentylphosphonic acid], the Kd is 100 to 1000 nM.

As for `CC(=O)c1ccc(O)c(Sc2ccc(CC[C@](C)(N)COP(=O)(O)O)c(Cl)c2)c1` [Example 16, (S)-4-[4-(5-acetyl-2-hydroxyphenylthio)-2-chlorophenyl]-2-amino-2-methylbutylphosphoric acid monoester], the dissociation constant (Kd) lay in the range of 10 to 100 nM.

As for `C[C@](N)(CCc1ccc(Sc2ccccc2O)cc1Cl)COP(=O)(O)O` [Example 14, (S)-2-amino-4-[2-chloro-4-(2-hydroxyphenylthio)phenyl]-2-methylbutylphosphoric acid monoester], the Kd was in the range of 10 to 100 nM.

As to `CCc1ccc(O)c(Sc2ccc(CC[C@](C)(N)COP(=O)(O)O)c(Cl)c2)c1` [Example 2, (S)-2-amino-4-[2-chloro-4-(5-ethyl-2-hydroxyphenylthio)phenyl]-2-methylbutylphosphoric acid monoester], the Kd lay in the range of 10 to 100 nM.

Consider `CCC[C@](N)(CCc1ccc(Sc2cc(C(C)(C)C)ccc2O)cc1Cl)COP(=O)(O)O` [Example 21, (S)-2-amino-4-[4-(5-t-butyl-2-hydroxyphenylthio)-2-chlorophenyl]-2-propylbutylphosphoric acid monoester], for which the Kd is under 1 nM.

Take `C[C@](N)(CCc1ccc(Sc2cc(C3CC3)ccc2O)cc1Cl)COP(=O)(O)O` [Example 5, (S)-2-amino-4-[2-chloro-4-(5-cyclopropyl-2-hydroxyphenylthio)phenyl]-2-methylbutylphosphoric acid monoester]: the Kd lay within 1 to 10 nM.

For the origin of these results see patent US8569270B2, “Diphenyl sulfide derivatives and medicines containing same as active ingredient” (Kyorin Pharmaceutical Co., Ltd., priority 2009, dated 2013).
